Marks after values point to notes of the source that are not given here.
How the values were obtained:
THP-1 cells [1] = test: THP-1 copolymer assay: secretion of IFN-γ-regulated chemokines, cytokines, receptors and proteases, Searchlight multiplex analysis; format: cell-based, human; conditions: for I-TAC / IP-10 / MIG: IFN-γ 10 ng/ml, 22-24 hours, 12 samples
Description: THP-1 cells (ATCC, TIB-202) were received from the American Type Culture Collection (ATCC). […] Cells were grown in complete growth medium and incubated in a 37° C., 5% CO2 incubator.
Assay medium was prepared fresh the day of the assay. The assay medium consisted of 2 mM Glutamax I Supplement (Invitrogen, 35050-79) in X-VIVO 15 serum-free medium (Cambrex, 04-418Q). These reagents were filtered in a 0.2 micron cellulose acetate filter unit (Nalgene, 156-4020). After filtration, the bottle was covered with foil to protect the medium from light.
COPAXONE® (glatiramer acetate; Teva Pharmaceuticals) was stored in the manufacturer's syringe at 4° C. Samples were prepared at a 2× concentration in the 2×IFN-γ assay medium in sterile, siliconized microfuge tubes. Final concentrations from 0 μg/ml to 400 μg/ml were tested in the assay.
Human IFN-γ (R&D Systems, 285-IF-100) was reconstituted with sterile 0.2% bovine serum albumin (BSA) in phosphate-buffered saline (PBS) (Chemicon, 3225-80).
On the day prior to assay, THP-1 cells were seeded at 2×10^5 cells/ml (20 ml final volume). These cells were harvested by centrifugation at 400×g, 5 min, 18° C. Cells were washed once with assay medium (without IFN-γ) and resuspended in assay medium (without IFN-γ) and counted. THP-1 cells were resuspended at 5×10^5 cells/ml in assay medium (with 0, 1, 10, and 100 ng/ml final concentration of IFN-γ). […] Assay plates were incubated for 0 to 23 hours in a 37° C., 5% CO2 incubator.
Conditioned medium was harvested into non-sterile, siliconized tubes. Tubes were centrifuged at 400×g, 5 min, 4° C. The supernatants were transferred to new, siliconized tubes and flash frozen in liquid nitrogen. Frozen conditioned medium was stored at −80° C. until they were submitted for Searchlight multiplex cytokine analysis (Pierce Endogen, Woburn, Mass.).

THP-1 cells [2] = test: as above; format: cell-based, human; conditions: IFN-γ 10 ng/ml, 22-24 hours, 12 samples
[3] = 50 μg/ml COPAXONE and 10 ng/ml IFN-γ, FIG. 1
[4] = 23 hours, GA 2 μg/ml, IFNγ 0 ng/ml
[5] = 23 hours, GA 2 μg/ml, IFNγ 10 ng/ml
[6] = 23 hours, GA 2 μg/ml, IFNγ 100 ng/ml
[7] = 23 hours, GA 2 μg/ml, IFNγ 1000 ng/ml
[8] = 23 hours, GA 10 μg/ml, IFNγ 0 ng/ml
[9] = 23 hours, GA 10 μg/ml, IFNγ 10 ng/ml
[10] = 23 hours, GA 10 μg/ml, IFNγ 100 ng/ml
[11] = 23 hours, GA 10 μg/ml, IFNγ 1000 ng/ml
[12] = IFNγ + 50 μg/ml I356 over IFNγ alone (10 ng/ml)

- Fold induction over baseline by culture medium (THP-1 cells [1]; X-VIVO15 serum-free defined medium compared with FBS media): highest fold induction over baseline
Substance: glatiramer acetate [COPAXONE®]
- I-TAC level, fold higher than baseline containing IFN-γ alone (THP-1 cells [1]; [3]): 412 fold
- IP-10 level, fold higher than baseline containing IFN-γ alone (THP-1 cells [1]; [3]): 329 fold
- MIG level, fold higher than baseline containing IFN-γ alone (THP-1 cells [1]; [3]): 573 fold
- I-TAC induction, fold increase over the control (0) (THP-1 cells [1]; [4]): 1 fold
- IP-10 induction, fold increase over the control (0) (THP-1 cells [1]; [4]): 0 fold
- MIG induction, fold increase over the control (0) (THP-1 cells [1]; [4]): 1 fold
- I-TAC induction, fold increase over the control (0) (THP-1 cells [1]; [5]): 10 fold
- IP-10 induction, fold increase over the control (0) (THP-1 cells [1]; [5]): 72 fold
- MIG induction, fold increase over the control (0) (THP-1 cells [1]; [5]): 21 fold
- I-TAC induction, fold increase over the control (0) (THP-1 cells [1]; [6]): 46 fold
- IP-10 induction, fold increase over the control (0) (THP-1 cells [1]; [6]): 49 fold
- MIG induction, fold increase over the control (0) (THP-1 cells [1]; [6]): 39 fold
- I-TAC induction, fold increase over the control (0) (THP-1 cells [1]; [7]): 23 fold
- IP-10 induction, fold increase over the control (0) (THP-1 cells [1]; [7]): 13 fold
- MIG induction, fold increase over the control (0) (THP-1 cells [1]; [7]): 23 fold
- I-TAC induction, fold increase over the control (0) (THP-1 cells [1]; [8]): 4 fold
- IP-10 induction, fold increase over the control (0) (THP-1 cells [1]; [8]): 0 fold
- MIG induction, fold increase over the control (0) (THP-1 cells [1]; [8]): 1 fold
- I-TAC induction, fold increase over the control (0) (THP-1 cells [1]; [9]): 51 fold
- IP-10 induction, fold increase over the control (0) (THP-1 cells [1]; [9]): 233 fold
- MIG induction, fold increase over the control (0) (THP-1 cells [1]; [9]): 284 fold
- I-TAC induction, fold increase over the control (0) (THP-1 cells [1]; [10]): 113 fold
- IP-10 induction, fold increase over the control (0) (THP-1 cells [1]; [10]): 67 fold
- MIG induction, fold increase over the control (0) (THP-1 cells [1]; [10]): 333 fold
- I-TAC induction, fold increase over the control (0) (THP-1 cells [1]; [11]): 49 fold
- IP-10 induction, fold increase over the control (0) (THP-1 cells [1]; [11]): 14 fold
- MIG induction, fold increase over the control (0) (THP-1 cells [1]; [11]): 160 fold
- IFN-γ concentration at which fold-induction over baseline is maximal (THP-1 cells [1]; 23 hours, IP-10, I-TAC, MIG): 1 to 10 ng/mL
- IP-10 production in the absence of IFN-γ (THP-1 cells [1]; COPAXONE alone, no IFN-γ): do not produce any significant amount
- Earliest time at which lower levels of IP-10, I-TAC and MIG can be detected (THP-1 cells [1]; COPAXONE and the higher IFN-γ concentrations): 3 to 6 h
- Effect on secretion of IP-10, I-TAC and MIG (THP-1 cells [1]; COPAXONE in combination with IFN-γ): striking, concentration-dependent effect
- I309 secretion (THP-1 cells [1]; IFNγ 10 ng/ml + 50 μg/ml I356): 15.6* pg/ml
- ICAM1 secretion (THP-1 cells [1]; IFNγ 10 ng/ml + 50 μg/ml I356): 279.9* pg/ml
- IL1β secretion (THP-1 cells [1]; IFNγ 10 ng/ml + 50 μg/ml I356): 0.5* pg/ml
- IL12p70 secretion (THP-1 cells [1]; IFNγ 10 ng/ml + 50 μg/ml I356): 8.9* pg/ml
- IL-6 secretion (THP-1 cells [1]; IFNγ 10 ng/ml + 50 μg/ml I356): 3.8* pg/ml
- IL-8 secretion (THP-1 cells [1]; IFNγ 10 ng/ml + 50 μg/ml I356): 217.1* pg/ml
- IL-10 secretion (THP-1 cells [1]; IFNγ 10 ng/ml + 50 μg/ml I356): 0.7* pg/ml
- IP10 secretion (THP-1 cells [1]; IFNγ 10 ng/ml + 50 μg/ml I356): 4060.5* pg/ml
- MCP1 secretion (THP-1 cells [1]; IFNγ 10 ng/ml + 50 μg/ml I356): 688.2* pg/ml
- MDC secretion (THP-1 cells [1]; IFNγ 10 ng/ml + 50 μg/ml I356): 23.6* pg/ml
- MIP1α secretion (THP-1 cells [1]; IFNγ 10 ng/ml + 50 μg/ml I356): 73.9* pg/ml
- MMP2 secretion (THP-1 cells [1]; IFNγ 10 ng/ml + 50 μg/ml I356): 915.9* pg/ml
- MMP9 secretion (THP-1 cells [1]; IFNγ 10 ng/ml + 50 μg/ml I356): 8.9* pg/ml
- RANTES secretion (THP-1 cells [1]; IFNγ 10 ng/ml + 50 μg/ml I356): 352.2* pg/ml
- TARC secretion (THP-1 cells [1]; IFNγ 10 ng/ml + 50 μg/ml I356): 35.2* pg/ml
- TIMP1 secretion (THP-1 cells [1]; IFNγ 10 ng/ml + 50 μg/ml I356): 6364.3* pg/ml
- TNFR1 secretion (THP-1 cells [1]; IFNγ 10 ng/ml + 50 μg/ml I356): 35.8* pg/ml
- TNFR2 secretion (THP-1 cells [1]; IFNγ 10 ng/ml + 50 μg/ml I356): 34.4* pg/ml
- TNFα secretion (THP-1 cells [1]; IFNγ 10 ng/ml + 50 μg/ml I356): 61.3* pg/ml
- IFNγ level in culture medium (THP-1 cells [1]; IFNγ 10 ng/ml + 50 μg/ml I356, 24 hr): 4575.9* pg/ml
- I309 Fold-increase (THP-1 cells [1]; [12]): 9.7 fold
- ICAM1 Fold-increase (THP-1 cells [1]; [12]): 6.0 fold
- IFNγ Fold-increase (THP-1 cells [1]; [12]): 9.7 fold
- IL1β Fold-increase (THP-1 cells [1]; [12]): 2.4 fold
- IL12p70 Fold-increase (THP-1 cells [1]; [12]): 1.9 fold
- IL-6 Fold-increase (THP-1 cells [1]; [12]): 19.0 fold
- IL-8 Fold-increase (THP-1 cells [1]; [12]): 8.5 fold
- IL-10 Fold-increase (THP-1 cells [1]; [12]): 2.0 fold
- IP10 Fold-increase (THP-1 cells [1]; [12]): 226.3 fold
- MCP1 Fold-increase (THP-1 cells [1]; [12]): 21.3 fold
- MDC Fold-increase (THP-1 cells [1]; [12]): 10.6 fold
- MIP1α Fold-increase (THP-1 cells [1]; [12]): 7.1 fold
- MMP2 Fold-increase (THP-1 cells [1]; [12]): 5.8 fold
- MMP9 Fold-increase (THP-1 cells [1]; [12]): 0.2 fold
- RANTES Fold-increase (THP-1 cells [1]; [12]): 3.6 fold
- TARC Fold-increase (THP-1 cells [1]; [12]): 3.0 fold
- TIMP1 Fold-increase (THP-1 cells [1]; [12]): 1.7 fold
- TNFR1 Fold-increase (THP-1 cells [1]; [12]): 5.2 fold
- TNFR2 Fold-increase (THP-1 cells [1]; [12]): 3.1 fold
- TNFα Fold-increase (THP-1 cells [1]; [12]): 1.8 fold
- I-TAC (THP-1 cells [1]; [GA] 0.78 μg/ml): 16.5 pg/mL
- IP-10 (THP-1 cells [1]; [GA] 0.78 μg/ml): 259.2 pg/mL
- I-TAC (THP-1 cells [1]; [GA] 1.56 μg/ml): 42.1 pg/mL
- IP-10 (THP-1 cells [1]; [GA] 1.56 μg/ml): 483.7 pg/mL
- I-TAC (THP-1 cells [1]; [GA] 3.13 μg/ml): 82.6 pg/mL
- IP-10 (THP-1 cells [1]; [GA] 3.13 μg/ml): 580.8 pg/mL
- I-TAC (THP-1 cells [1]; [GA] 6.25 μg/ml): 105.9 pg/mL
- IP-10 (THP-1 cells [1]; [GA] 6.25 μg/ml): 581.4 pg/mL
- MIG (THP-1 cells [1]; [GA] 6.25 μg/ml): 2704.5 pg/mL
- I-TAC (THP-1 cells [1]; [GA] 12.5 μg/ml): 179.2 pg/mL
- MIG (THP-1 cells [1]; [GA] 12.5 μg/ml): 3608 pg/mL
- IP-10 (THP-1 cells [1]; [GA] 25 μg/ml): 829 pg/mL
- MIG (THP-1 cells [1]; [GA] 25 μg/ml): 4480.6 pg/mL
- I-TAC (THP-1 cells [1]; [GA] 50 μg/ml): 532.6 pg/mL
- IP-10 (THP-1 cells [1]; [GA] 50 μg/ml): 2150.8 pg/mL
- MIG (THP-1 cells [1]; [GA] 50 μg/ml): 13771.2 pg/mL
- I-TAC (THP-1 cells [1]; [GA] 100 μg/ml): 2444 pg/mL
- IP-10 (THP-1 cells [1]; [GA] 100 μg/ml): 12865.1 pg/mL
- MIG (THP-1 cells [1]; [GA] 100 μg/ml): 45353.3 pg/mL
- I-TAC (THP-1 cells [1]; [GA] 200 μg/ml): 2091.2 pg/mL
- MIG (THP-1 cells [1]; [GA] 200 μg/ml): 37897.5 pg/mL
- I-TAC (THP-1 cells [1]; [GA] 400 μg/ml): 1560.5 pg/mL
- IP-10 (THP-1 cells [1]; [GA] 400 μg/ml): 6111.3 pg/mL
- IFN-γ levels with COPAXONE treatment (THP-1 cells [1]; measured at 24 hours): concentration-dependent increase
- Secretion of IP-10, MIG, I-TAC and IFN-γ in all medium conditions (THP-1 cells [1]; various concentrations of FBS or X-VIVO15 serum-free medium): robust secretion
- MIG (THP-1 cells [2]; [GA] 0.78 μg/ml): 149.7 pg/mL
- MIG (THP-1 cells [2]; [GA] 1.56 μg/ml): 345.6 pg/mL
- MIG (THP-1 cells [2]; [GA] 3.13 μg/ml): 933.6 pg/mL
- IP-10 (THP-1 cells [2]; [GA] 12.5 μg/ml): 782.6 pg/mL
- I-TAC (THP-1 cells [2]; [GA] 25 μg/ml): 247.1 pg/mL
- IP-10 (THP-1 cells [2]; [GA] 200 μg/ml): 10899 pg/mL
- MIG (THP-1 cells [2]; [GA] 400 μg/ml): 27574.5 pg/mL

— US8753833B2, “Copolymer assay” (Momenta Pharmaceuticals, Inc., priority 2007, dated 2014)
